Species on record: Rattus norvegicus
Test: DrugMatrix - Regimen: Daily Repeat
Assay type: toxicity, organism-based, Sprague-Dawley
Parameters: regimen Daily Repeat, gender Male, age 6-8 weeks
Settings: in vivo, po, route oral GAVAGE, vehicle .5 % CMC; for BASOPHIL / EOSINOPHIL / ERYTHROCYTE COUNT / HEMATOCRIT / HEMOGLOBIN / LEUKOCYTE COUNT / LYMPHOCYTE / MEAN CORPUSCULAR HEMOGLOBIN / MEAN CORPUSCULAR HEMOGLOBIN CONCENTRATION / MEAN CORPUSCULAR VOLUME / MONOCYTE / NEUTROPHIL / PLATELET COUNT: tissue Blood
[1] = 0 mg/kg, […], tissue Plasma, dose level Control, time 28 day
[2] = 30 mg/kg, 72 h, dose level M1, time 3 day
[3] = 30 mg/kg, 72 h, tissue Plasma, dose level M1, time 3 day
[4] = 30 mg/kg, 120 h, dose level M1, time 5 day
[5] = 30 mg/kg, 120 h, tissue Plasma, dose level M1, time 5 day
[6] = 300 mg/kg, 72 h, dose level High, time 3 day
[7] = 300 mg/kg, 72 h, tissue Plasma, dose level High, time 3 day
[8] = 300 mg/kg, 120 h, dose level High, time 5 day
[9] = 300 mg/kg, 120 h, tissue Plasma, dose level High, time 5 day

Cc1ccc2cc3c(ccc4ccccc43)c3c2c1CC3 [3-METHYLCHOLANTHRENE] was tested, and the CHOLESTEROL [1] was 59.6 mg/dL, the “CREATINE PHOSPHOKINASE” value [1] was 121.8 u/L and the CREATININE [1] was 0.6 mg/dL. The GLUCOSE [1] was 143 mg/dL, the “LACTATE DEHYDROGENASE” value [1] was 87.8 u/L and the LIPASE [1] was 17.4 u/L. It also gave a PHOSPHORUS [1] of 8.68 mg/dL, a POTASSIUM [1] of 6.02 MEQ/L and an SODIUM [1] of 152.8 MEQ/L. The “TOTAL BILIRUBIN” value [1] was 0.26 mg/dL, the “TOTAL PROTEIN” value [1] was 6.92 G/DL and the “URIC ACID” value [1] was 0.52 mg/dL. The BASOPHIL [2] was 0.4%, the EOSINOPHIL [2] was 0.4% and the “ERYTHROCYTE COUNT” value [2] was 6.58 x10E6/uL. The HEMATOCRIT [2] was 41.43%, the HEMOGLOBIN [2] was 13.13 G/DL and the “LEUKOCYTE COUNT” value [2] was 12.08 x10E3/uL. The LYMPHOCYTE [2] was 83.17%, the “MEAN CORPUSCULAR HEMOGLOBIN” value [2] was 20 pg and the “MEAN CORPUSCULAR HEMOGLOBIN CONCENTRATION” value [2] was 31.7 G/DL. The “MEAN CORPUSCULAR VOLUME” value [2] was 63.07 fL, the MONOCYTE [2] was 2.4% and the NEUTROPHIL [2] was 12.5%. The “PLATELET COUNT” value [2] was 1282.33 x10E3/uL, the “ALANINE AMINOTRANSFERASE” value [3] was 39.67 u/L and the ALBUMIN [3] was 3.57 G/DL. For the same compound, the “ALKALINE PHOSPHATASE” value [3] was 304 u/L, the “ASPARTATE AMINOTRANSFERASE” value [3] was 67.67 u/L and the “BLOOD UREA NITROGEN” value [3] was 12.67 mg/dL. For the same compound, the CHLORIDE [3] was 104 MEQ/L, the CHOLESTEROL [3] was 97.67 mg/dL and the “CREATINE PHOSPHOKINASE” value [3] was 181.67 u/L. It also gave a CREATININE [3] of 0.37 mg/dL, a GLUCOSE [3] of 174.33 mg/dL and a PHOSPHORUS [3] of 12.23 mg/dL. For the same compound, the POTASSIUM [3] was 6.87 MEQ/L, the SODIUM [3] was 147.67 MEQ/L and the “TOTAL BILIRUBIN” value [3] was 0.43 mg/dL. The “TOTAL PROTEIN” value [3] was 6.03 G/DL, the BASOPHIL [4] was 0.43% and the EOSINOPHIL [4] was 0.27%. For the same compound, the “ERYTHROCYTE COUNT” value [4] was 6.57 x10E6/uL, the HEMATOCRIT [4] was 43.27% and the HEMOGLOBIN [4] was 13.43 G/DL. For the same compound, the “LEUKOCYTE COUNT” value [4] was 10.87 x10E3/uL, the LYMPHOCYTE [4] was 82.07% and the “MEAN CORPUSCULAR HEMOGLOBIN” value [4] was 20.43 pg. For the same compound, the “MEAN CORPUSCULAR HEMOGLOBIN CONCENTRATION” value [4] was 31.07 G/DL, the “MEAN CORPUSCULAR VOLUME” value [4] was 65.87 fL and the MONOCYTE [4] was 2.43%. The NEUTROPHIL [4] was 13.57%, the “PLATELET COUNT” value [4] was 1575.33 x10E3/uL and the “ALANINE AMINOTRANSFERASE” value [5] was 38.33 u/L. For the same compound, the ALBUMIN [5] was 3.47 G/DL, the “ALKALINE PHOSPHATASE” value [5] was 335.67 u/L and the “ASPARTATE AMINOTRANSFERASE” value [5] was 70.67 u/L. For the same compound, the “BLOOD UREA NITROGEN” value [5] was 15 mg/dL, the CHLORIDE [5] was 103.33 MEQ/L and the CHOLESTEROL [5] was 82 mg/dL. The “CREATINE PHOSPHOKINASE” value [5] was 189.33 u/L, the CREATININE [5] was 0.4 mg/dL and the GLUCOSE [5] was 182 mg/dL. For the same compound, the PHOSPHORUS [5] was 12.6 mg/dL, the POTASSIUM [5] was 6.87 MEQ/L and the SODIUM [5] was 148.33 MEQ/L. The “TOTAL BILIRUBIN” value [5] was 0.4 mg/dL, the “TOTAL PROTEIN” value [5] was 5.77 G/DL and the BASOPHIL [6] was 0.4%. The EOSINOPHIL [6] was 0.37%, the “ERYTHROCYTE COUNT” value [6] was 6.99 x10E6/uL and the HEMATOCRIT [6] was 43.53%. The HEMOGLOBIN [6] was 13.6 G/DL, the “LEUKOCYTE COUNT” value [6] was 10.06 x10E3/uL and the LYMPHOCYTE [6] was 78.97%. The “MEAN CORPUSCULAR HEMOGLOBIN” value [6] was 19.47 pg, the “MEAN CORPUSCULAR HEMOGLOBIN CONCENTRATION” value [6] was 31.3 G/DL and the “MEAN CORPUSCULAR VOLUME” value [6] was 62.23 fL. The MONOCYTE [6] was 2.83%, the NEUTROPHIL [6] was 15.97% and the “PLATELET COUNT” value [6] was 1201 x10E3/uL. The “ALANINE AMINOTRANSFERASE” value [7] was 33.33 u/L, the ALBUMIN [7] was 3.53 G/DL and the “ALKALINE PHOSPHATASE” value [7] was 316 u/L. The “ASPARTATE AMINOTRANSFERASE” value [7] was 60 u/L, the “BLOOD UREA NITROGEN” value [7] was 12.67 mg/dL and the CHLORIDE [7] was 103.67 MEQ/L. For the same compound, the CHOLESTEROL [7] was 97.67 mg/dL, the “CREATINE PHOSPHOKINASE” value [7] was 153 u/L and the CREATININE [7] was 0.43 mg/dL. For the same compound, the GLUCOSE [7] was 185.67 mg/dL, the PHOSPHORUS [7] was 12.47 mg/dL and the POTASSIUM [7] was 6.9 MEQ/L. For the same compound, the SODIUM [7] was 147 MEQ/L, the “TOTAL BILIRUBIN” value [7] was 0.5 mg/dL and the “TOTAL PROTEIN” value [7] was 5.83 G/DL. The BASOPHIL [8] was 0.55%, the EOSINOPHIL [8] was 0.15% and the “ERYTHROCYTE COUNT” value [8] was 6.96 x10E6/uL. The HEMATOCRIT [8] was 44.15%, the HEMOGLOBIN [8] was 14.05 G/DL and the “LEUKOCYTE COUNT” value [8] was 9.75 x10E3/uL. The LYMPHOCYTE [8] was 87.2%, the “MEAN CORPUSCULAR HEMOGLOBIN” value [8] was 20.2 pg and the “MEAN CORPUSCULAR HEMOGLOBIN CONCENTRATION” value [8] was 31.8 G/DL. For the same compound, the “MEAN CORPUSCULAR VOLUME” value [8] was 63.45 fL, the MONOCYTE [8] was 2.05% and the NEUTROPHIL [8] was 8.8%. For the same compound, the “PLATELET COUNT” value [8] was 1398 x10E3/uL, the “ALANINE AMINOTRANSFERASE” value [9] was 37 u/L and the ALBUMIN [9] was 3.63 G/DL. For the same compound, the “ALKALINE PHOSPHATASE” value [9] was 280 u/L, the “ASPARTATE AMINOTRANSFERASE” value [9] was 66.33 u/L and the “BLOOD UREA NITROGEN” value [9] was 14.67 mg/dL. For the same compound, the CHLORIDE [9] was 103 MEQ/L, the CHOLESTEROL [9] was 112 mg/dL and the “CREATINE PHOSPHOKINASE” value [9] was 163.67 u/L. It also gave a CREATININE [9] of 0.4 mg/dL, a GLUCOSE [9] of 178.33 mg/dL and a PHOSPHORUS [9] of 13.37 mg/dL. For the same compound, the POTASSIUM [9] was 7.9 MEQ/L, the SODIUM [9] was 147.33 MEQ/L and the “TOTAL BILIRUBIN” value [9] was 0.4 mg/dL. For the same compound, the “TOTAL PROTEIN” value [9] was 6.13 G/DL.
